Reference: ChEMBL document CHEMBL1134430, “Synthesis and biological activity of novel macrocyclic antifungals: acylated conjugates of the ornithine moiety of the lipopeptidolactone FR901469” (2001)
Values after ≈ are worked out from the molar mass of the structure shown.

How the values were obtained:
Assay type in all cases: functional
[1] = test system: Meyerozyma guilliermondii; assay: Minimum inhibitory concentration against Candida guilliermondii FP587 strain
Candida parapsilosis = assay: Minimum inhibitory concentration against Candida parapsilosis 15001 strain; conditions: Lodderomyces parapsilosis
Candida albicans [2] = assay: Minimum inhibitory concentration against Candida albicans FP579 strain
Candida albicans [3] = assay: Minimum inhibitory concentration against Candida albicans FP633 strain
Candida tropicalis [4] = assay: Minimum inhibitory concentration against Candida tropicalis 8001 strain
Candida tropicalis [5] = assay: Minimum inhibitory concentration against Candida tropicalis 8002 strain
Mus musculus [6] = organism: Mus musculus; assay: Hemolytic ability to hemolyze ICR mouse RBCs in microtiter red blood cell hemolysis assay; set-up: concentration or dose not given beside the values
Aspergillus fumigatus = assay: In vitro minimum inhibitory concentration against Aspergillus fumigatus TIMM0063 FPI305 was determined by the broth microdilution method.
Mus musculus [7] = assay: (§1) Ratio of In vivo activity of drug in Disseminated Murine Candidiasis Model to that of In vivo activity of FR-901469 in Disseminated Murine Candidiasis Model
Mus musculus [8] = assay: In vivo activity in Disseminated Murine Candidiasis Model
[9] = as §1

| Compound | MIC [1] [µg/mL] | MIC (Candida parapsilosis) [µg/mL] | MIC (Candida albicans [2]) [µg/mL] | MIC (Candida albicans [3]) [µg/mL] | MIC (Candida tropicalis [4]) [µg/mL] | MIC (Candida tropicalis [5]) [µg/mL] | Hemolysis (Mus musculus [6]) [%] | MIC (Aspergillus fumigatus) [µg/mL] | Ratio (Mus musculus [7]) | ED50 (Mus musculus [8]) [mg/kg] | Ratio [9] |
| --- | --- | --- | --- | --- | --- | --- | --- | --- | --- | --- | --- |
| CCCCCCCCCCCCC[C@@H]1CC(=O)N[C@H]([C@@H](C)O)C(=O)N[C@H](C)C(=O)N[C@@H](Cc2ccc(O)cc2)C(=O)N[C@@H](C(C)C)C(=O)N2C[C@H](O)C[C@H]2C(=O)N[C@H]([C@@H](C)O)C(=O)N[C@@H]([C@@H](C)O)C(=O)N2CC[C@H](O)[C@H]2C(=O)N[C@@H]([C@H](O)CC(N)=O)C(=O)NCC(=O)N[C@H]([C@@H](C)O)C(=O)N[C@@H](CCCNC(=O)CO)C(=O)O1 | 0.39 (≈ 0.245 µM) | 0.78 (≈ 0.49 µM) | 0.78 (≈ 0.49 µM) | 0.39 (≈ 0.245 µM) | 1.56 (≈ 0.98 µM) | 0.78 (≈ 0.49 µM) | 9 | – | – | – | – |
| CCCCCCCCCCCCC[C@@H]1CC(=O)N[C@H]([C@@H](C)O)C(=O)N[C@H](C)C(=O)N[C@@H](Cc2ccc(O)cc2)C(=O)N[C@@H](C(C)C)C(=O)N2C[C@H](O)C[C@H]2C(=O)N[C@H]([C@@H](C)O)C(=O)N[C@@H]([C@@H](C)O)C(=O)N2CC[C@H](O)[C@H]2C(=O)N[C@@H]([C@H](O)CC(N)=O)C(=O)NCC(=O)N[C@H]([C@@H](C)O)C(=O)N[C@@H](CCCNC(C)=O)C(=O)O1 | 0.78 (≈ 0.495 µM) | 1.56 (≈ 0.99 µM) | 0.78 (≈ 0.495 µM) | 0.39 (≈ 0.247 µM) | 1.56 (≈ 0.99 µM) | 1.56 (≈ 0.99 µM) | 5 | 1 (≈ 0.635 µM) | 6.2 | 4 | – |
| CCCCCCCCCCCCC[C@@H]1CC(=O)N[C@H]([C@@H](C)O)C(=O)N[C@H](C)C(=O)N[C@@H](Cc2ccc(O)cc2)C(=O)N[C@@H](C(C)C)C(=O)N2C[C@H](O)C[C@H]2C(=O)N[C@H]([C@@H](C)O)C(=O)N[C@@H]([C@@H](C)O)C(=O)N2CC[C@H](O)[C@H]2C(=O)N[C@@H]([C@H](O)CC(N)=O)C(=O)NCC(=O)N[C@H]([C@@H](C)O)C(=O)N[C@@H](CCCNC(=O)[C@@H](N)CCCN)C(=O)O1.Cl | 0.39 | 0.39 | 0.78 | 0.39 | 1.56 | 1.56 | 20 | 0.5 | – | 0.54 | 0.8 |
| CCCCCCCCCCCCC[C@@H]1CC(=O)N[C@H]([C@@H](C)O)C(=O)N[C@H](C)C(=O)N[C@@H](Cc2ccc(O)cc2)C(=O)N[C@@H](C(C)C)C(=O)N2C[C@H](O)C[C@H]2C(=O)N[C@H]([C@@H](C)O)C(=O)N[C@@H]([C@@H](C)O)C(=O)N2CC[C@H](O)[C@H]2C(=O)N[C@@H]([C@H](O)CC(N)=O)C(=O)NCC(=O)N[C@H]([C@@H](C)O)C(=O)N[C@@H](CCCNC(=O)CN)C(=O)O1.Cl | 0.78 | 0.78 | 0.78 | 0.39 | 0.78 | 0.78 | 67 | 0.5 | – | – | – |
| CCCCCCCCCCCCC[C@@H]1CC(=O)N[C@H]([C@@H](C)O)C(=O)N[C@H](C)C(=O)N[C@@H](Cc2ccc(O)cc2)C(=O)N[C@@H](C(C)C)C(=O)N2C[C@H](O)C[C@H]2C(=O)N[C@H]([C@@H](C)O)C(=O)N[C@@H]([C@@H](C)O)C(=O)N2CC[C@H](O)[C@H]2C(=O)N[C@@H]([C@H](O)CC(N)=O)C(=O)NCC(=O)N[C@H]([C@@H](C)O)C(=O)N[C@@H](CCCNC(=O)[C@@H]2CCN2)C(=O)O1.Cl | 0.78 | 0.78 | 0.78 | 0.39 | 0.39 | 0.39 | 27 | – | – | – | – |
| CCCCCCCCCCCCC[C@@H]1CC(=O)N[C@H]([C@@H](C)O)C(=O)N[C@H](C)C(=O)N[C@@H](Cc2ccc(O)cc2)C(=O)N[C@@H](C(C)C)C(=O)N2C[C@H](O)C[C@H]2C(=O)N[C@H]([C@@H](C)O)C(=O)N[C@@H]([C@@H](C)O)C(=O)N2CC[C@H](O)[C@H]2C(=O)N[C@@H]([C@H](O)CC(N)=O)C(=O)NCC(=O)N[C@H]([C@@H](C)O)C(=O)N[C@@H](CCCNC(=O)CCCCN)C(=O)O1.Cl | 0.39 | 0.39 | 0.78 | 0.39 | 0.78 | 0.78 | 20 | – | – | – | – |
| CCCCCCCCCCCCC[C@@H]1CC(=O)N[C@H]([C@@H](C)O)C(=O)N[C@H](C)C(=O)N[C@@H](Cc2ccc(O)cc2)C(=O)N[C@@H](C(C)C)C(=O)N2C[C@H](O)C[C@H]2C(=O)N[C@H]([C@@H](C)O)C(=O)N[C@@H]([C@@H](C)O)C(=O)N2CC[C@H](O)[C@H]2C(=O)N[C@@H]([C@H](O)CC(N)=O)C(=O)NCC(=O)N[C@H]([C@@H](C)O)C(=O)N[C@@H](CCCNC(=O)CCN)C(=O)O1.Cl | 0.39 | 0.39 | 0.39 | 0.39 | 0.78 | 0.78 | 44 | – | – | – | – |
| CCCCCCCCCCCCC[C@@H]1CC(=O)N[C@H]([C@@H](C)O)C(=O)N[C@H](C)C(=O)N[C@@H](Cc2ccc(O)cc2)C(=O)N[C@@H](C(C)C)C(=O)N2C[C@H](O)C[C@H]2C(=O)N[C@H]([C@@H](C)O)C(=O)N[C@@H]([C@@H](C)O)C(=O)N2CC[C@H](O)[C@H]2C(=O)N[C@@H]([C@H](O)CC(N)=O)C(=O)NCC(=O)N[C@H]([C@@H](C)O)C(=O)N[C@@H](CCCNC(=O)CCCN)C(=O)O1.Cl | 0.78 | 0.78 | 1.56 | 0.78 | 1.56 | 0.78 | 30 | – | – | – | – |
| CCCCCCCCCCCCC[C@@H]1CC(=O)N[C@H]([C@@H](C)O)C(=O)N[C@H](C)C(=O)N[C@@H](Cc2ccc(O)cc2)C(=O)N[C@@H](C(C)C)C(=O)N2C[C@H](O)C[C@H]2C(=O)N[C@H]([C@@H](C)O)C(=O)N[C@@H]([C@@H](C)O)C(=O)N2CC[C@H](O)[C@H]2C(=O)N[C@@H]([C@H](O)CC(N)=O)C(=O)NCC(=O)N[C@H]([C@@H](C)O)C(=O)N[C@@H](CCCNC(=O)CCCCCN)C(=O)O1.Cl | 0.78 | 0.39 | 0.78 | 0.39 | 0.78 | 0.78 | 14 | – | – | – | – |
| CCCCCCCCCCCCC[C@@H]1CC(=O)N[C@H]([C@@H](C)O)C(=O)N[C@H](C)C(=O)N[C@@H](Cc2ccc(O)cc2)C(=O)N[C@@H](C(C)C)C(=O)N2C[C@H](O)C[C@H]2C(=O)N[C@H]([C@@H](C)O)C(=O)N[C@@H]([C@@H](C)O)C(=O)N2CC[C@H](O)[C@H]2C(=O)N[C@@H]([C@H](O)CC(N)=O)C(=O)NCC(=O)N[C@H]([C@@H](C)O)C(=O)N[C@@H](CCCNC(=O)CN(C)C)C(=O)O1.Cl | 0.2 | 0.39 | 0.78 | 0.39 | 0.78 | 0.78 | 10 | 0.5 | 10.4 | 9.1 | – |
| CCCCCCCCCCCCC[C@@H]1CC(=O)N[C@H]([C@@H](C)O)C(=O)N[C@H](C)C(=O)N[C@@H](Cc2ccc(O)cc2)C(=O)N[C@@H](C(C)C)C(=O)N2C[C@H](O)C[C@H]2C(=O)N[C@H]([C@@H](C)O)C(=O)N[C@@H]([C@@H](C)O)C(=O)N2CC[C@H](O)[C@H]2C(=O)N[C@@H]([C@H](O)CC(N)=O)C(=O)NCC(=O)N[C@H]([C@@H](C)O)C(=O)N[C@@H](CCCNC(=O)CNC)C(=O)O1.Cl | 0.39 | 0.39 | 0.39 | 0.2 | 0.78 | 0.78 | 54 | – | – | – | – |
| CCCCCCCCCCCCC[C@@H]1CC(=O)N[C@H]([C@@H](C)O)C(=O)N[C@H](C)C(=O)N[C@@H](Cc2ccc(O)cc2)C(=O)N[C@@H](C(C)C)C(=O)N2C[C@H](O)C[C@H]2C(=O)N[C@H]([C@@H](C)O)C(=O)N[C@@H]([C@@H](C)O)C(=O)N2CC[C@H](O)[C@H]2C(=O)N[C@@H]([C@H](O)CC(N)=O)C(=O)NCC(=O)N[C@H]([C@@H](C)O)C(=O)N[C@@H](CCCN)C(=O)O1.Cl | 0.39 | 0.39 | 0.39 | 0.39 | 0.39 | 0.39 | 100 | 0.5 | – | 0.44 | – |
| C[C@@H]1[C@H](O)[C@@H](C)/C=C/C=C/C=C/C=C/C=C/C=C/C=C/[C@H](O[C@@H]2O[C@H](C)[C@@H](O)[C@H](N)[C@@H]2O)C[C@@H]2O[C@](O)(C[C@@H](O)C[C@@H](O)[C@H](O)CC[C@@H](O)C[C@@H](O)CC(=O)O[C@H]1C)C[C@H](O)[C@H]2C(=O)O [AMPHOTERICIN B] | – | – | – | – | – | – | – | – | – | 0.132 | – |
| OC(Cn1cncn1)(Cn1cncn1)c1ccc(F)cc1F [FLUCONAZOLE] | – | – | – | – | – | – | – | – | – | > 20 | – |
